According to ChEMBL document CHEMBL4184224, “Degradation of huntingtin mediated by a hybrid molecule composed of IAP antagonist linked to phenyldiazenyl benzothiazole derivative” (Bioorg Med Chem Lett, 2018):
Calls of active or inactive are those of the source. No cut-off for these calls is given here. Where a SMILES comes first, the peptide text is derived from it. [ ]: non-standard residue; d: D form. The star is where a group is joined. X1 = CN(C)c1ccc(/N=N/c2nc3ccc(OCCOCCOCCN*)cc3s2)cc1; Dip = N[C@H](C(=O)O)C(c1ccccc1)c1ccccc1; Chg = N[C@H](C(=O)O)C1CCCCC1; NMeA = CN[C@@H](C)C(=O)O

Tests used:
Type in all cases: protein assay
[1] = molecular target: T1, Baculoviral IAP repeat-containing protein 3/Huntingtin (Homo sapiens) (UniProt Q13489+P42858); assay: Induction of IAP-huntingtin interaction-mediated huntingtin protein degradation in fibroblasts derived from normal human subjects assessed as huntingtin protein level at 10 uM incubated for 96 hrs by Western blot method (reference value: 100%)
[2] = molecular target: T1, Baculoviral IAP repeat-containing protein 3/Huntingtin (Homo sapiens); assay: Induction of IAP-huntingtin interaction-mediated huntingtin protein degradation in fibroblasts derived from Huntington's disease patient at 10 uM incubated for 24 to 72 hrs by Western blot method
[3] = molecular target: T1, Baculoviral IAP repeat-containing protein 3/Huntingtin (Homo sapiens); assay: Induction of IAP-huntingtin interaction-mediated huntingtin protein degradation in fibroblasts derived from normal human subjects assessed as huntingtin protein level at 10 uM incubated for 24 hrs by Western blot method (reference value: 100%)
[4] = molecular target: T1, Baculoviral IAP repeat-containing protein 3/Huntingtin (Homo sapiens); assay: Induction of IAP-huntingtin interaction-mediated huntingtin protein degradation in fibroblasts derived from normal human subjects at 10 uM incubated for 24 to 72 hrs by Western blot method
[5] = molecular target: T1, Baculoviral IAP repeat-containing protein 3/Huntingtin (Homo sapiens); assay: Induction of IAP-huntingtin interaction-mediated huntingtin protein degradation in fibroblasts derived from normal human subjects assessed as huntingtin protein level at 10 uM incubated for 48 hrs by Western blot method (reference value: 100%)
[6] = molecular target: T1, Baculoviral IAP repeat-containing protein 3/Huntingtin (Homo sapiens); assay: Induction of IAP-huntingtin interaction-mediated huntingtin protein degradation in fibroblasts derived from normal human subjects assessed as huntingtin protein level at 10 uM incubated for 72 hrs by Western blot method (reference value: 100%)
[7] = molecular target: T1, Baculoviral IAP repeat-containing protein 3/Huntingtin (Homo sapiens); assay: Induction of IAP-huntingtin interaction-mediated huntingtin protein degradation in fibroblasts derived from Huntington's disease patient incubated for 24 hrs by Western blot method
[8] = molecular target: T1, Baculoviral IAP repeat-containing protein 3/Huntingtin (Homo sapiens); assay: Induction of immobilized GST tagged BIR3 (unknown origin)/insoluble GST-tagged huntingtin 62Q mutant (unknown origin) interaction at 3 to 30 uM incubated for 1.5 hrs at 37 degC by ELISA
[9] = molecular target: T1, Baculoviral IAP repeat-containing protein 3/Huntingtin (Homo sapiens); assay: Induction of immobilized GST tagged BIR3 (unknown origin)/soluble GST-tagged huntingtin 62Q mutant (unknown origin) interaction at 10 uM in presence of 10 and 100 uM thioflavin T incubated for 1.5 hrs at 37 degC by ELISA
[10] = molecular target: T1, Baculoviral IAP repeat-containing protein 3/Huntingtin (Homo sapiens); assay: Induction of IAP-huntingtin interaction-mediated huntingtin protein degradation in fibroblasts derived from Huntington's disease patient incubated for 48 to 72 hrs by Western blot method
[11] = molecular target: T1, Baculoviral IAP repeat-containing protein 3/Huntingtin (Homo sapiens); assay: Induction of immobilized GST tagged BIR3 (unknown origin)/soluble GST-tagged huntingtin 62Q mutant (unknown origin) interaction at 3 to 30 uM incubated for 1.5 hrs at 37 degC by ELISA
[12] = molecular target: T1, Baculoviral IAP repeat-containing protein 3/Huntingtin (Homo sapiens); assay: Induction of immobilized GST tagged BIR3 (unknown origin)/soluble GST-tagged huntingtin 62Q mutant (unknown origin) interaction at 10 uM in presence of 3 and 10 uM MV1 incubated for 1.5 hrs at 37 degC by ELISA

T1 sequence (P42858 whole entry, looked up): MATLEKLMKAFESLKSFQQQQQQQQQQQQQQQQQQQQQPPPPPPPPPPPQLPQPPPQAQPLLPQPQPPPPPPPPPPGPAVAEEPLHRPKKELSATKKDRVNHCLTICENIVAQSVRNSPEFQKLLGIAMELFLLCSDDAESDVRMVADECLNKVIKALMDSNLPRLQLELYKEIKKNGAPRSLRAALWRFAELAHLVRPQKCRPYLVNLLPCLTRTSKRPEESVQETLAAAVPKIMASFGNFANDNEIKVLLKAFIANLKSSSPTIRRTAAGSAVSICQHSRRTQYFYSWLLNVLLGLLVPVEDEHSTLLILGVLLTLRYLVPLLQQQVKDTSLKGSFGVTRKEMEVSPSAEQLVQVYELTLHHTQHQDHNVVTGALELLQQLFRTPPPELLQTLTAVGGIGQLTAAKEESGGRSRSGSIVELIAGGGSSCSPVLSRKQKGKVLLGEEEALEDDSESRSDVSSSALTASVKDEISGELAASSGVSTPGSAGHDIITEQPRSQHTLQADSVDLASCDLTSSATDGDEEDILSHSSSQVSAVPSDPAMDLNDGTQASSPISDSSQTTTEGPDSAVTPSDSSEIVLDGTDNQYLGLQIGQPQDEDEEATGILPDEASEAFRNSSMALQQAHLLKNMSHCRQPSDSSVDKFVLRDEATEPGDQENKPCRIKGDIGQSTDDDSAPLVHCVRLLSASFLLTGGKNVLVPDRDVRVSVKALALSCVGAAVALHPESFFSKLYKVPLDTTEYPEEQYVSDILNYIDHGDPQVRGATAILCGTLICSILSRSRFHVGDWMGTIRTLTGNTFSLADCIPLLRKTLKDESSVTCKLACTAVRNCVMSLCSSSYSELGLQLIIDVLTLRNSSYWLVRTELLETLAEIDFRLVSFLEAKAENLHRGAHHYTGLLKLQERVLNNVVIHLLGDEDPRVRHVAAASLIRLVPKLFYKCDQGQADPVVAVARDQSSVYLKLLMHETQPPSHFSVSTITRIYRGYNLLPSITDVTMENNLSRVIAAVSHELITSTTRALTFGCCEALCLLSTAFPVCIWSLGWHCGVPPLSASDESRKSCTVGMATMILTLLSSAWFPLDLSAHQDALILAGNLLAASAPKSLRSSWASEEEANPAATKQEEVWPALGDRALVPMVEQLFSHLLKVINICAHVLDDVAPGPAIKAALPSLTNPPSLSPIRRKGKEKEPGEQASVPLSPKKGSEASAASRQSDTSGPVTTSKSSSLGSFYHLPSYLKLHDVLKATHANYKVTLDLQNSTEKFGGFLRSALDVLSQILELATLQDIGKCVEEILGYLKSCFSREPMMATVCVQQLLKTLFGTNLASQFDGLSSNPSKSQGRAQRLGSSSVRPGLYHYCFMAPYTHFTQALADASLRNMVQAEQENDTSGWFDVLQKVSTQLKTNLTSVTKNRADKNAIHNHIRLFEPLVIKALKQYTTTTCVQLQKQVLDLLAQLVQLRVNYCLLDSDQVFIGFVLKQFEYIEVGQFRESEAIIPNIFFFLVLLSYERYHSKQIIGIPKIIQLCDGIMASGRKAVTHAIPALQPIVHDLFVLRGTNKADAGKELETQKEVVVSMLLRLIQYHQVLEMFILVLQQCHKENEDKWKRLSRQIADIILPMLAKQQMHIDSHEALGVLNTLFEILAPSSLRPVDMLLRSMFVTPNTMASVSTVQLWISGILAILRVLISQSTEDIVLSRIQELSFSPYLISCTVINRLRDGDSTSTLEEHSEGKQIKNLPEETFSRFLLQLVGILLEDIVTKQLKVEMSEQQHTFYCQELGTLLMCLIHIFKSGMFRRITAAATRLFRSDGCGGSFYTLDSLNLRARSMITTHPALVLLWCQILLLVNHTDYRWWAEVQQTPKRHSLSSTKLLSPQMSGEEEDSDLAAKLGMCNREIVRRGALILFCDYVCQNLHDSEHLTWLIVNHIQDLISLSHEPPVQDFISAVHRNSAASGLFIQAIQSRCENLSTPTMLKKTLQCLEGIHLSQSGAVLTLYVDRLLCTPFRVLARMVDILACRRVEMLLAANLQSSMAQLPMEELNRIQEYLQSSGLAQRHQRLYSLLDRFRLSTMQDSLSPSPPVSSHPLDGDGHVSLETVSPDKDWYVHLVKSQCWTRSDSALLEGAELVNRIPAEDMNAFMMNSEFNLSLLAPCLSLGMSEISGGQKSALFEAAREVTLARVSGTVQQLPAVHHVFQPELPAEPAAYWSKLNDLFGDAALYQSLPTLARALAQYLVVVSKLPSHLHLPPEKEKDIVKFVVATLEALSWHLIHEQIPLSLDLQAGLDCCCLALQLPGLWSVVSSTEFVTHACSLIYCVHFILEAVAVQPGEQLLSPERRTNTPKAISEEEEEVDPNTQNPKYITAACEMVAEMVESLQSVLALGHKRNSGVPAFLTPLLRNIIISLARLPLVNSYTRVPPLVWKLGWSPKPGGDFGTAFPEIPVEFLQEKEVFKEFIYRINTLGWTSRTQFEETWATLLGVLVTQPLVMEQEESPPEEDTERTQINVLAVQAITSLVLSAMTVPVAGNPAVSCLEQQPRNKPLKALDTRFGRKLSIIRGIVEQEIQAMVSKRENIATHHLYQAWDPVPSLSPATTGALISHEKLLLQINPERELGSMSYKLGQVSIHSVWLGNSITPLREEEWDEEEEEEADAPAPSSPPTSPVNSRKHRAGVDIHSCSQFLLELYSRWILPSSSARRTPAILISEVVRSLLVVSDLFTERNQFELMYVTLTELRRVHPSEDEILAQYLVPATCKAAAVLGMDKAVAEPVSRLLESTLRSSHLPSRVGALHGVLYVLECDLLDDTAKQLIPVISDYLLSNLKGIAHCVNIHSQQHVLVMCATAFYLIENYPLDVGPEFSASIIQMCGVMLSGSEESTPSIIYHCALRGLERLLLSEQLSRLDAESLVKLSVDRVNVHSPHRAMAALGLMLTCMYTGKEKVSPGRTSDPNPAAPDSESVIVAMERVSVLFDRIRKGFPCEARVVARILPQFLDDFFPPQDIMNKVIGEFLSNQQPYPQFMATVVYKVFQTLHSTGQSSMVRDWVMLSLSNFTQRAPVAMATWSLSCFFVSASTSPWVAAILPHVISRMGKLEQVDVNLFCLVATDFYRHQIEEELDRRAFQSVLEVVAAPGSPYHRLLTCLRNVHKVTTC
T1 sequence (Q13489 whole entry, looked up): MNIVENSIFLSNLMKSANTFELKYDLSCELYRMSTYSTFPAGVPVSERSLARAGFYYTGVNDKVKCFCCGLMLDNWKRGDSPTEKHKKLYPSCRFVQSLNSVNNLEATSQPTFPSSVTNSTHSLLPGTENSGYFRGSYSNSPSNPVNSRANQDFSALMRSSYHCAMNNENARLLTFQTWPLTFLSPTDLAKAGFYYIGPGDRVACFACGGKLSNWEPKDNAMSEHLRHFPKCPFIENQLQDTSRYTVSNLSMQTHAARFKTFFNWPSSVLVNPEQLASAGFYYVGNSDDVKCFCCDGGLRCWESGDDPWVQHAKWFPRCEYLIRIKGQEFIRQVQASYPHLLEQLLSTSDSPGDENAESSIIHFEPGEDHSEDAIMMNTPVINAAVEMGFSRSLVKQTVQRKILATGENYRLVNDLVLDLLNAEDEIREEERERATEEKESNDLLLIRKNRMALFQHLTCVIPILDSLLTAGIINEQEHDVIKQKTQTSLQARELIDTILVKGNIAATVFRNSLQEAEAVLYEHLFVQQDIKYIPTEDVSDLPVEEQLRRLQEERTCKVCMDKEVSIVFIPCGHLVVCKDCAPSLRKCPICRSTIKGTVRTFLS

Compound | Activity [1] | Activity [2] | Activity [3] | Activity [4] | Activity [5] | Activity [6] | Activity [7] | Activity [8] | Activity [9] | Activity [10] | Activity [11] | Activity [12]
Cc1ccc2nc(-c3ccc(NCCOCCOCCNC(=O)[C@H](CC(C)C)NC(=O)[C@@H](O)[C@H](N)Cc4ccccc4)cc3)sc2c1 | Active | Active | Active | Active | Active | Active |  |  |  |  |  | 
CC(C)C[C@H](NC(=O)[C@@H](O)[C@H](N)Cc1ccccc1)C(=O)NCCOCCOCCOc1ccc2nc(/N=N/c3ccc(N(C)C)cc3)sc2c1 | Active | Active | Active | Active | Active | Active |  |  |  |  |  | 
CN[C@@H](C)C(=O)N[C@H](C(=O)N1CCC[C@H]1C(=O)N[C@H](C(=O)NCCOCCOCCOc1ccc2nc(/N=N/c3ccc(N(C)C)cc3)sc2c1)C(c1ccccc1)c1ccccc1)C1CCCCC1 (H-[NMeA][Chg]P[Dip]-X1) | 44% | Active | 72% |  | 70% | 76% | Dose-dependent effect | Active | inactive | Active | Active | inactive
